Activity calls are given as the source filed them.
How the values were obtained:
[1] = Vero E6 cell cytotoxicity, dose response, cytotoxicity control for non-replicating M. tuberculosis project, secondary assay (AID 492998); format: functional, VeroE6; details: Vero C1008
Hexokinase = molecular target: T1, Hexokinase (Trypanosoma brucei, UniProt Q38C41); experiment: Confirmation assay for inhibitors of Trypanosoma brucei hexokinase 1-Analogue-first series. [Related pubchem assays (depositor defined):AID1430, AID1632, AID2516, AID2560, AID2579, AID2600, AID449725, AID492951]; format: functional
T1 sequence (Q38C41 whole entry): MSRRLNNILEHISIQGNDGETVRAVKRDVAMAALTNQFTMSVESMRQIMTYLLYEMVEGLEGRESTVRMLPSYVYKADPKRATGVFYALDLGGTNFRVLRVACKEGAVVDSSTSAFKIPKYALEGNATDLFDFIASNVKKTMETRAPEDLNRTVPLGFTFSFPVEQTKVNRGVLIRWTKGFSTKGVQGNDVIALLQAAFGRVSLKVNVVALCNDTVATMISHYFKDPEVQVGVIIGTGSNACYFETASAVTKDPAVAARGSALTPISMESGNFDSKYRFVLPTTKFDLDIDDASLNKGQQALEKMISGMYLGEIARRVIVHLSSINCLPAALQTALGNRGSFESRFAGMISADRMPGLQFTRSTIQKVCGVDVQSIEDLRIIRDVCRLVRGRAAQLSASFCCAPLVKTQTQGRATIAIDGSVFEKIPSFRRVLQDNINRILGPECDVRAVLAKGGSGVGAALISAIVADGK

[2] = microbe, parasite or virus in culture; format: functional; details: Mycobacterium tuberculosis
[3] = Jurkat T cell cytotoxicity, dose response, cytotoxicity control for P. falciparum gametocyte viability project, luminescence (AID 1117277); format: functional, cell-based;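 also: potency reflects loss of cellular ATP meaning fewer viable cells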
cells = format: functional
[4] = molecular target: DNA dC->dU-editing enzyme APOBEC-3G (Homo sapiens, UniProt Q9HC16); experiment: Dose Response confirmation of small molecule APOBEC3G DNA Deaminase Inhibitors via a fluorescence-based single-stranded DNA deaminase assay. [Related pubchem assays (depositor defined):AID493012, AID493028]; format: functional
Chain of DNA dC->dU-editing enzyme APOBEC-3G (Q9HC16 whole entry): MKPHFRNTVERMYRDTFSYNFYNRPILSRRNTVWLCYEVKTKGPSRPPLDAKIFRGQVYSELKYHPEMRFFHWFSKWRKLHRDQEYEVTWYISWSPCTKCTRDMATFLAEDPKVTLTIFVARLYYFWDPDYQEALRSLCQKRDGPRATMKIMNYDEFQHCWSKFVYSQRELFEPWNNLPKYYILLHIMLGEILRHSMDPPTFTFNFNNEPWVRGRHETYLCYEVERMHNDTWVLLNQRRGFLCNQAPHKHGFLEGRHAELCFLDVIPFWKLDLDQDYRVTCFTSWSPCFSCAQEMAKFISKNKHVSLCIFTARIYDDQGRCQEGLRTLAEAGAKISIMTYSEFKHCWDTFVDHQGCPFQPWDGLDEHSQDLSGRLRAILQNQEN

[5] = THP-1 cell cytotoxicity, dose response, cytotoxicity control for non-replicating M. tuberculosis project (AID 489025); format: functional
Procathepsin L = Procathepsin L (Homo sapiens, UniProt P07711)
Chain of Procathepsin L (P07711 whole entry): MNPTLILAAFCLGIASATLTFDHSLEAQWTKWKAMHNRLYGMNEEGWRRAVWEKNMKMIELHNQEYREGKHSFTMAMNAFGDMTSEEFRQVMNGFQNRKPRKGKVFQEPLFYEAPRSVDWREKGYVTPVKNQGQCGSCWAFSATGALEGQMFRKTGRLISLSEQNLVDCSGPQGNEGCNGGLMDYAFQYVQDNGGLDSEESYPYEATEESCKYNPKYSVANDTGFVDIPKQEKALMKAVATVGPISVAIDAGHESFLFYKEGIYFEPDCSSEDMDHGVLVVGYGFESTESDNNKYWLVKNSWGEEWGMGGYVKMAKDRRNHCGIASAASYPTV

[6] = molecular target: DNA dC->dU-editing enzyme APOBEC-3A (Homo sapiens, UniProt P31941); experiment: APOBEC3A DNA deaminase inhibitors, dose response, biochemical (AID 504722); format: functional
Chain of DNA dC->dU-editing enzyme APOBEC-3A (P31941 whole entry): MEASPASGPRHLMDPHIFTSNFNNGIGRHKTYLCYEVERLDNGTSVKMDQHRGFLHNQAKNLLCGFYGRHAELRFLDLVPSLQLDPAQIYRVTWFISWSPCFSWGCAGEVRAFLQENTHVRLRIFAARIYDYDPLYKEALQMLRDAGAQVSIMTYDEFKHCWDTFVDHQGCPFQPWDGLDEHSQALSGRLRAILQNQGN

[7] = molecular target: Mitochondrial peptide methionine sulfoxide reductase (Bos taurus, UniProt P54149); experiment: Absorbance-based biochemical high throughput dose response assay for activators of Methionine sulfoxide reductase A (MsrA).; format: functional
Large T antigen = Large T antigen (Simian virus 40, UniProt P03070); format: functional, Betapolyomavirus macacae;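 also: Confirmatory-stage PubChem screen for compounds that inhibit SV40 T antigen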
Chain of Large T antigen (P03070 whole entry): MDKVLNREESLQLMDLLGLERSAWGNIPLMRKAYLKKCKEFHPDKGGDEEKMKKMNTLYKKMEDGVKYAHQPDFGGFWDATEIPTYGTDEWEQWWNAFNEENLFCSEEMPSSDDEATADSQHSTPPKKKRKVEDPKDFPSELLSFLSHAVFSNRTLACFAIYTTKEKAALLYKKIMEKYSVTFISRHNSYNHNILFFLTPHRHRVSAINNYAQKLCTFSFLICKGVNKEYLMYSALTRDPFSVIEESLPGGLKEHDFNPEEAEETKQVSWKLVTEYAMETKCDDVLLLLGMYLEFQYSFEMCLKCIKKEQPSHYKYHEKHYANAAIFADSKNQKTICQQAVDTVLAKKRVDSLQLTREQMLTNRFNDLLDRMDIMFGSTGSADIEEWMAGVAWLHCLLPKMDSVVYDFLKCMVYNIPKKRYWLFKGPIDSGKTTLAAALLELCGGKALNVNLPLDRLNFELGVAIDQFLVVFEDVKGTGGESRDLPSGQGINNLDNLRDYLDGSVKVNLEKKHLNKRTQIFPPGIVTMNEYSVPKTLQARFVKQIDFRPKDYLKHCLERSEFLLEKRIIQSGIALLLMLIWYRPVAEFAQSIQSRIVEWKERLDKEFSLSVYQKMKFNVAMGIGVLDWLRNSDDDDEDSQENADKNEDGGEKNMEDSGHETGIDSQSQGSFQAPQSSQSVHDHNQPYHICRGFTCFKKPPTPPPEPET

[8] = molecular target: Mannose-6-phosphate isomerase (Homo sapiens, UniProt P34949); experiment: human PMI inhibitors, high substrate, primary screen, biochemical, fluorescence intensity, high mannose 6-phosphate (AID 1220)
Chain of Mannose-6-phosphate isomerase (P34949 whole entry): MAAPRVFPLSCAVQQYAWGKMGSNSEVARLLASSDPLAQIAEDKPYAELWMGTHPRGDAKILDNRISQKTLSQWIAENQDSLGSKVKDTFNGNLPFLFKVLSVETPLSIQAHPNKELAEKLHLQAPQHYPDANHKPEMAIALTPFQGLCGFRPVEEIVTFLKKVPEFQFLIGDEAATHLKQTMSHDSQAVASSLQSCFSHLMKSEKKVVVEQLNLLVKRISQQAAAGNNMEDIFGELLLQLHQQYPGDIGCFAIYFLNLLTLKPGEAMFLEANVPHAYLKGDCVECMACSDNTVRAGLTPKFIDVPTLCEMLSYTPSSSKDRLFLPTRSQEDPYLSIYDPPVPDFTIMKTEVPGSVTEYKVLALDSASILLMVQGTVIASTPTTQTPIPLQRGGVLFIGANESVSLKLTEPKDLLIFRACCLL

[9] = molecular target: Eukaryotic translation initiation factor 4E (Mus musculus, UniProt P63073); experiment: eIF4E–eIF4G protein interaction inhibitors, dose response, biochemical, TR-FRET (AID 855); format: functional;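 also: potency for disrupting eIF4E binding to eIF4GI seen as loss of FRET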
Chain of Eukaryotic translation initiation factor 4E (P63073 whole entry): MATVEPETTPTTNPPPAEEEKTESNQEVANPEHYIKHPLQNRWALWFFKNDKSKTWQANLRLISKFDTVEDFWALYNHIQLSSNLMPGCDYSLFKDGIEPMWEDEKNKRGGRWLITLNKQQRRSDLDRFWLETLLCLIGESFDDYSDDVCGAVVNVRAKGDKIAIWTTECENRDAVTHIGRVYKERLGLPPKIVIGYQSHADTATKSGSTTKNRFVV

[10] = P. falciparum late gametocyte killing, dose response, luminescence (AID 1117278); format: functional, cell-based;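 also: gametocytes exposed to compound for 24 hours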
[11] = molecular target: Glucose-6-phosphate 1-dehydrogenase (Homo sapiens, UniProt P11413); experiment: human G6PD enzyme inhibitors, dose response, selectivity assay for P. falciparum G6PD inhibitor project, biochemical, fluorescence (AID 504792); format: functional
Aspartyl aminopeptidase = Aspartyl aminopeptidase (Plasmodium falciparum 3D7, UniProt Q8I2J3)
Chain of Aspartyl aminopeptidase (Q8I2J3 whole entry): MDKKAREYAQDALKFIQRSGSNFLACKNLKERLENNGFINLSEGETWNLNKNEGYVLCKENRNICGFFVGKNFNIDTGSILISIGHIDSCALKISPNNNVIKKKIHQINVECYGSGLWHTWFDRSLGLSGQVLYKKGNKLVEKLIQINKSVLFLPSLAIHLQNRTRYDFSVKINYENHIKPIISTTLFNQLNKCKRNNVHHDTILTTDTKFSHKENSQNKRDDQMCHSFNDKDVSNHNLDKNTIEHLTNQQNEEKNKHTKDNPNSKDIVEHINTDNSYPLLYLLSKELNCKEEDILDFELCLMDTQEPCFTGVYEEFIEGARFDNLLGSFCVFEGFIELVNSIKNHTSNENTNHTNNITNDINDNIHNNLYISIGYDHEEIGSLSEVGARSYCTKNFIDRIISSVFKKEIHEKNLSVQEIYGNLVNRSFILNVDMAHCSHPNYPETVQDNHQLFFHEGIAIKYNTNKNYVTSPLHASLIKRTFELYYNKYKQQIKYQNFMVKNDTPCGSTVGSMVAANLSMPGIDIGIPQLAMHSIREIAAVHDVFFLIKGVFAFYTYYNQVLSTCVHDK

[12] = molecular target: Eukaryotic translation initiation factor 4H (Homo sapiens, UniProt Q15056); experiment: human eIF4H binding inhibitors, primary screen, translation initiation inhibitor project, biochemical, uHTS, fluorescence polarization (AID 2012)
[13] = molecular target: Polyadenylate-binding protein 1 (Homo sapiens, UniProt P11940); experiment: PABP poly(A) RNA binding inhibitors, primary screen, biochemical, fluorescence polarization, uHTS (AID 2014)
Cytochrome P450 2D6 = Cytochrome P450 2D6 (Homo sapiens, UniProt P10635); experiment: qHTS Assay for Inhibitors and Substrates of Cytochrome P450 2D6. [Related pubchem assays: 410 ]; format: ADME; details: read-out: Potency
Chain of Cytochrome P450 2D6 (P10635 whole entry): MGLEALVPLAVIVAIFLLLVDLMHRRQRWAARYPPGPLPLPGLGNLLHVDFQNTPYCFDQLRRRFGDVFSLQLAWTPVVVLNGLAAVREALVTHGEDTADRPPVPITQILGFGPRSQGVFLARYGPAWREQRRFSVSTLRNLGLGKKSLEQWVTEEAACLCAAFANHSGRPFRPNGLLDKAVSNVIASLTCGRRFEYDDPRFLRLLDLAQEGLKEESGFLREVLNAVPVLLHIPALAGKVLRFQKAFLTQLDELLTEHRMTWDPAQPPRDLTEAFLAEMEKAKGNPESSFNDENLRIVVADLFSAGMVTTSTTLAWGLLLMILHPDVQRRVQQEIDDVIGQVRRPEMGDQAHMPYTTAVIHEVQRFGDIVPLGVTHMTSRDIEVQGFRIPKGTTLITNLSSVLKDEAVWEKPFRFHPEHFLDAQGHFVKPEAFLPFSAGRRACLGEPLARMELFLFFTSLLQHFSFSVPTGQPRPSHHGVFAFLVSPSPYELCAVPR

Oxytocin receptor = Oxytocin receptor (Homo sapiens, UniProt P30559); experiment: Fluorescence-based cell-based high throughput dose response assay for agonists of the Oxytocin Receptor (OXTR). [Related pubchem assays: 2435 (Primary screen (OXTR agonists in singlicate)), 434991 (Counterscreen (V1R agonists in triplicate)), 2482 (Summary (OXTR agonists)), 434963 (Confirmation screen (OXTR agonists in triplicate))]; format: functional
Chain of Oxytocin receptor (P30559 whole entry): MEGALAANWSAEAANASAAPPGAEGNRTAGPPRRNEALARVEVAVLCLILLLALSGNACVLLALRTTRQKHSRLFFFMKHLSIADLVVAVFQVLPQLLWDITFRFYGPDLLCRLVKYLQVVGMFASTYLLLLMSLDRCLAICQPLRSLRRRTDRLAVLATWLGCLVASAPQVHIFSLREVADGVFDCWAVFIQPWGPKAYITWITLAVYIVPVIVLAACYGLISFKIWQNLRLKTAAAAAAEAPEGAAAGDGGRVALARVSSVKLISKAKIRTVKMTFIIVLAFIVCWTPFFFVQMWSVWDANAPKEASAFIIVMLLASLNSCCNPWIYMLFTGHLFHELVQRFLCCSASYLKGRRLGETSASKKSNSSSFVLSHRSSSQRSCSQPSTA

Galanin receptor type 2 = Galanin receptor type 2 (Homo sapiens, UniProt O43603); experiment: Dose Response cell-based high-throughput screening assay to identify antagonists of galanin receptor 2 (GALR2). [Related pubchem assays: 828, 866 ]; format: functional
Chain of Galanin receptor type 2 (O43603 whole entry): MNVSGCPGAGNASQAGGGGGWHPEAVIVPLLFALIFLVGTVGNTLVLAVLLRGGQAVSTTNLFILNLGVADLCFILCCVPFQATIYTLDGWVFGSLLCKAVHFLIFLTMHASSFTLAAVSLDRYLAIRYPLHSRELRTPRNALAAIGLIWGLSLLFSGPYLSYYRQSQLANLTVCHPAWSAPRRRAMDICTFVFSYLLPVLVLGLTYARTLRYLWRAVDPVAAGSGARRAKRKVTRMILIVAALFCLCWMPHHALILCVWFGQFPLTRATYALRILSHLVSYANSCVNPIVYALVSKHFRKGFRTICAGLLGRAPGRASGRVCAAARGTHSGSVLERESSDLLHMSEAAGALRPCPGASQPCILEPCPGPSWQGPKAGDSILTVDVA

Vasopressin V1a receptor = Vasopressin V1a receptor (Homo sapiens, UniProt P37288); experiment: Counterscreen for Oxytocin Receptor (OXTR) agonists: Fluorescence-based cell-based high throughput dose response assay to identify agonists of the vasopressin 1 receptor (V1R). [Related pubchem assays: 2435 (Primary screen (OXTR agonists in singlicate)), 434991 (Counterscreen (V1R agonists in triplicate)), 2482 (Summary (OXTR agonists)) …; format: functional
Chain of Vasopressin V1a receptor (P37288 whole entry): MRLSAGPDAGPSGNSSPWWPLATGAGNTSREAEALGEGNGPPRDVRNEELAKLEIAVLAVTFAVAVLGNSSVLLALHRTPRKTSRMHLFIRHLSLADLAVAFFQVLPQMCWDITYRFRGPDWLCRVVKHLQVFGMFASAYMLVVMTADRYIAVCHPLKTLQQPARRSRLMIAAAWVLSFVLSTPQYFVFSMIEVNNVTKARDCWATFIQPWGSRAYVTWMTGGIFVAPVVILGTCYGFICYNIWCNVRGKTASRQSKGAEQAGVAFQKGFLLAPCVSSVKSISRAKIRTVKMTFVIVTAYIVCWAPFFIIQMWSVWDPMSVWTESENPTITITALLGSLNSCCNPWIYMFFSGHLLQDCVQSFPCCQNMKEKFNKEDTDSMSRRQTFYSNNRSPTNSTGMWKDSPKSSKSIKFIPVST

Ion channel NompC = Ion channel NompC (Danio rerio, UniProt Q7T1G6); experiment: Dose response cell-based high-throughput screening assay for agonists of the transient receptor potential channel N1 (TRPN1). [Related pubchem assays (depositor defined):AID1424, AID1448]; format: functional
Mucolipin-3 = molecular target: T2, Mucolipin-3 (Homo sapiens, UniProt Q8TDD5); experiment: Fluorescence counterscreen assay for […] agonists: dose response cell-based high-throughput screening assay to identify agonists of the transient receptor potential channel ML3 (TRPML3). [Related pubchem assays: 1424, 1448 ]; format: functional
T2 sequence (Q8TDD5 whole entry): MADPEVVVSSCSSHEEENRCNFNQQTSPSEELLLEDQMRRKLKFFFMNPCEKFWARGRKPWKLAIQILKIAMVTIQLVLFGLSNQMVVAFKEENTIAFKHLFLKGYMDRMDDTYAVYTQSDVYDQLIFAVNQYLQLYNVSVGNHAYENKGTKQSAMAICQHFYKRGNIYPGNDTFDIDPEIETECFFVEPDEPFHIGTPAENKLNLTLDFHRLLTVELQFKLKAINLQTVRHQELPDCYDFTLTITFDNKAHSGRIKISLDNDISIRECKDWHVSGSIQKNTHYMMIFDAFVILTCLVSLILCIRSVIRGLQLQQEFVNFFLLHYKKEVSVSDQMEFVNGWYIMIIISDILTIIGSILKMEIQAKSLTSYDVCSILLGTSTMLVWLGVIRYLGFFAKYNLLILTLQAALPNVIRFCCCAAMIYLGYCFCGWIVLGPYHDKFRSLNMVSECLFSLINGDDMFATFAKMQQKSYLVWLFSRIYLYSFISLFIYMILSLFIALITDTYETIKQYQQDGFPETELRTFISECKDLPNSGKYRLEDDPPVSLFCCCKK

[14] = molecular target: Likely tRNA 2'-phosphotransferase (Candida albicans (strain SC5314 / ATCC MYA-2876) (Yeast), UniProt Q5A7N4); experiment: TPT1 tRNA phosphotransferase inhibitors, dose response, biochemical, fluorescence polarization (AID 2160)
Chain of Likely tRNA 2'-phosphotransferase (Q5A7N4 whole entry): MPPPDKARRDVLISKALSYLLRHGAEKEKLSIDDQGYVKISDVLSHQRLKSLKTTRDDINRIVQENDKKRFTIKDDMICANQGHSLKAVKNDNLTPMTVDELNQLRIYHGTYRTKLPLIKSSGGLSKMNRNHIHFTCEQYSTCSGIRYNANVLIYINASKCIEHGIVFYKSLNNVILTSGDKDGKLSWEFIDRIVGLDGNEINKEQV

[15] = inhibitors of intracellular T. cruzi replication, confirmation, NIH3T3 host cells, beta-gal luminescence (AID 2044); format: functional, cell-based;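 also: intracellular parasites grown in NIH/3T3 mouse fibroblasts as host cells; luminescent beta-galactosidase reporter signal from transgenic T. cruzi replicating inside host cells; inhibitors lower the luminescence signal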
[16] = Artemis endonuclease inhibitor potency, dose response, biochemical, fluorescence intensity (AID 720701); format: functional;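 also: Artemis endonuclease enzyme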
[17] = molecular target: T3, Replicative DNA helicase DnaB (Mycobacterium tuberculosis, UniProt P9WMR3); experiment: DnaB intein splicing inhibitors, dose response, biochemical, cell-free fluorescence (AID 449749); format: functional
T3 sequence (P9WMR3 whole entry): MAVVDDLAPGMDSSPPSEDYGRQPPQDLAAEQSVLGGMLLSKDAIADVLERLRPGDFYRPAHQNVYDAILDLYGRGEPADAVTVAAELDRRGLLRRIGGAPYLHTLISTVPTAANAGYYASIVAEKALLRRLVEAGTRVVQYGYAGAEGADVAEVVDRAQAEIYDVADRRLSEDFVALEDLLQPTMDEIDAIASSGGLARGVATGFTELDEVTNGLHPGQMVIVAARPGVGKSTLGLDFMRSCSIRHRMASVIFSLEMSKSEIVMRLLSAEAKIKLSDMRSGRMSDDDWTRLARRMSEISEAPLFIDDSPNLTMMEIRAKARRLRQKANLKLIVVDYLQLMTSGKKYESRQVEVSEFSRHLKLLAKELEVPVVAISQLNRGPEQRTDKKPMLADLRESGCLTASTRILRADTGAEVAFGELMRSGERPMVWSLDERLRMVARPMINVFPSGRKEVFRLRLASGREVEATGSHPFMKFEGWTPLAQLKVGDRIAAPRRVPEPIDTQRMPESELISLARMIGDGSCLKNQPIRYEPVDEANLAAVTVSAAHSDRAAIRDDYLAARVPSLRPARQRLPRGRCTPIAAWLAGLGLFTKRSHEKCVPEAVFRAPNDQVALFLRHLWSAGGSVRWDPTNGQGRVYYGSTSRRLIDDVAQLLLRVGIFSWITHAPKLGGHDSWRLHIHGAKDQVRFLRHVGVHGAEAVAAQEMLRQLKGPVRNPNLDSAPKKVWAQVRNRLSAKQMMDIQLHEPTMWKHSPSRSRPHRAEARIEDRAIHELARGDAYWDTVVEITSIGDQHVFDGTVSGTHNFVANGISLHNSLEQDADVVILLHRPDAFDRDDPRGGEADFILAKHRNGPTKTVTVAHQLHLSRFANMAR

[18] = cytotoxicity toward NIH3T3 fibroblasts, dose response, counter-screen, cell-based, ATP luminescence, mouse fibroblasts (AID 2010); format: functional;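 also: cells exposed to compound for about 90 hours before reading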
[19] = molecular target: Guanyl-specific ribonuclease T1 (Aspergillus oryzae (strain ATCC 42149 / RIB 40), UniProt P00651); experiment: RNase T1 inhibitors, dose response, counter-screen for TPT1 inhibitor project, biochemical, fluorescence polarization, 1536-well (AID 2167)
Chain of Guanyl-specific ribonuclease T1 (P00651 whole entry): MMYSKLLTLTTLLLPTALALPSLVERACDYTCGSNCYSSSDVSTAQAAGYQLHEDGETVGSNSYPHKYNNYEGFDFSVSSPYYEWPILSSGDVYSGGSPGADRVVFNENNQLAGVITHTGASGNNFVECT

Protein RecA = molecular target: T4, Protein RecA (Mycobacterium tuberculosis, UniProt P9WHJ3); experiment: Fluorescence Cell-Free Homogeneous Dose Retest to Identify Inhibitors of RecA-Intein Splicing Activity. [Related pubchem assays (depositor defined):AID2097, AID2223, AID489010, AID492950]; format: functional
T4 sequence (P9WHJ3 whole entry): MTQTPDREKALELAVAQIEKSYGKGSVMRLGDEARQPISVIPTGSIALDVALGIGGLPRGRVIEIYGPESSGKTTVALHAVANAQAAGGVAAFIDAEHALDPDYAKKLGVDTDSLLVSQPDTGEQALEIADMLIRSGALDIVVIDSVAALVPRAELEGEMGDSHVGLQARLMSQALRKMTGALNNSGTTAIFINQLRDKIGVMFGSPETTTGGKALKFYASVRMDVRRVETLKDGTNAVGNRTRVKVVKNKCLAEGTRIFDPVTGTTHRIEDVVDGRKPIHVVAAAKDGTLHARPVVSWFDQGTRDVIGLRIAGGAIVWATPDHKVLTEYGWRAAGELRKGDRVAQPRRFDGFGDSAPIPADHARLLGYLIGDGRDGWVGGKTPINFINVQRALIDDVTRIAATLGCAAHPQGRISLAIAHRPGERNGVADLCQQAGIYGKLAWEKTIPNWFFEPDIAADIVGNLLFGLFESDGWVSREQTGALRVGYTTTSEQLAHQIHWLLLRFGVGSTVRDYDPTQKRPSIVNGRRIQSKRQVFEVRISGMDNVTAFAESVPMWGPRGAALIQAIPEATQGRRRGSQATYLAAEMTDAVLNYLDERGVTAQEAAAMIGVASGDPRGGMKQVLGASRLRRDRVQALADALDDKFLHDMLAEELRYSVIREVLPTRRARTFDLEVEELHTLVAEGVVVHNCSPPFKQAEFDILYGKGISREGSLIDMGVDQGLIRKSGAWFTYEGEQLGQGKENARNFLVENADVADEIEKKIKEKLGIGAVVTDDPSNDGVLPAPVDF

Cc1ccccc1-n1sc2cc(F)ccc2c1=O
CC50 [1]: 12.1 µM (active)
IC50 (Hexokinase): 4.8 µM (active)
CC50 [2]: 13 µM (active)
IC50 [3]: 6.73 µM (active)
IC50 (cells): 23.7 µM (active)
IC50 [4]: 9.02 µM (active)
CC50 [5]: 19 µM (active)
IC50 (Procathepsin L): > 59.6 µM (not active)
IC50 [6]: > 100 µM (inactive)
EC50 [7]: > 104 µM (inactive)
IC50 (Large T antigen): 13.1 µM (active)
IC50 [8]: 8.95 µM (active)
IC50 [9]: 36.7 µM (inactive)
IC50 [10]: 39.6 µM (inactive)
IC50 [11]: 13.9 µM (active)
IC50 (Aspartyl aminopeptidase): 648 nM (active)

O=C1C=C(NCc2ccc(Cl)cc2)CC(c2ccco2)C1 (stereo unspecified)
IC50 [12]: 41.3 µM (active)
IC50 [13]: 64.6 µM (active)

COC(=O)[C@@H]1C[C@H]1[C@@H](NC(=O)OCc1ccccc1)c1ccccc1
AC50 (Cytochrome P450 2D6): 12.6 µM (inconclusive)

C/N=c1\[nH]c2cc([N+](=O)[O-])c([N+](=O)[O-])cc2[nH]\c1=N\C
EC50 (Oxytocin receptor): > 29.9 µM (not active)
IC50 (Galanin receptor type 2): 1.29 µM (active)
EC50 (Vasopressin V1a receptor): > 29.9 µM (not active)
EC50 (Ion channel NompC): > 29.9 µM (inactive)
EC50 (Mucolipin-3): > 29.9 µM (not active)

Cc1ccc2nc(N/N=C\c3ccc([N+](=O)[O-])o3)nc(-c3ccccc3)c2c1
IC50 [14]: > 55.7 µM (not active)
EC50 [15]: 176 nM (active)
IC50 [16]: > 20 µM (inactive)
AC50 [17]: > 380 µM (inactive)
EC50 [18]: 9.01 µM (active)
IC50 [19]: > 55.7 µM (not active)
EC50 (Protein RecA): 208 µM (inconclusive)

Source: ChEMBL document CHEMBL1201862, “PubChem BioAssay data set” (2004)
